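48-hour exposure; five concentrations; linearly interpolated endpoints. At the GI50, growth is halved.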 Calls of active or inactive are those of the source. No stated cut-off is given here; in the data, active = GI50 up to about 1.1 µM and inactive = higher.
Tests used:
Test in all cases: NCI-60 cell line screen, 48 h
TK-10 = test system: TK-10
HCT-116 = test system: HCT-116
MDA-MB-231 = test system: MDA-MB-231
HT-29 = test system: HT-29
NCI-H522 = test system: NCI-H522
Malme-3M = test system: Malme-3M
HCC 2998 = test system: HCC 2998
Hs-578T = test system: Hs-578T
MCF7 = test system: MCF7
A549 = test system: A549
RXF 393 = test system: RXF 393
CAKI-1 = test system: CAKI-1
SK-MEL-28 = test system: SK-MEL-28
SF-268 = test system: SF-268
MDA-MB-435 = test system: MDA-MB-435
COLO 205 = test system: COLO 205
SF-295 = test system: SF-295
DU-145 = test system: DU-145
SR = test system: SR
OVCAR-3 = test system: OVCAR-3

| SMILES | GI50 (TK-10) | GI50 (HCT-116) | GI50 (MDA-MB-231) | GI50 (HT-29) | GI50 (NCI-H522) | GI50 (Malme-3M) | GI50 (HCC 2998) | GI50 (Hs-578T) | GI50 (MCF7) | GI50 (A549) | GI50 (RXF 393) | GI50 (CAKI-1) | GI50 (SK-MEL-28) | GI50 (SF-268) | GI50 (MDA-MB-435) | GI50 (COLO 205) | GI50 (SF-295) | GI50 (DU-145) | GI50 (SR) | GI50 (OVCAR-3) |
| --- | --- | --- | --- | --- | --- | --- | --- | --- | --- | --- | --- | --- | --- | --- | --- | --- | --- | --- | --- | --- |
| Cc1ccc(C(=O)Cc2nc3ncccc3[nH]c2=O)cc1 | 29.9 µM (inactive) | 30.5 µM (inactive) | 24.9 µM (inactive) | 59.6 µM (inactive) | 48.3 µM (inactive) | 23.2 µM (inactive) | 51.5 µM (inactive) | 13.3 µM (inactive) | 49.9 µM (inactive) | 12.8 µM (inactive) | 44.2 µM (inactive) | 65.5 µM (inactive) | 32.8 µM (inactive) | 41.6 µM (inactive) | 18.7 µM (inactive) | 58.9 µM (inactive) | 45.4 µM (inactive) | 58.2 µM (inactive) | 48.5 µM (inactive) | 40.1 µM (inactive) |
| Cc1c(C)c2c(c(N)c1C#N)C(=O)N(Nc1ccccc1)C2=O | 28.1 µM (inactive) | > 100 µM (inactive) | 31.9 µM (inactive) |  | 29.2 µM (inactive) | 51.5 µM (inactive) | > 100 µM (inactive) | 46.7 µM (inactive) | 60.1 µM (inactive) | 74.3 µM (inactive) | 20 µM (inactive) | > 100 µM (inactive) | > 100 µM (inactive) | 40.8 µM (inactive) | 72.8 µM (inactive) | > 100 µM (inactive) | 34.1 µM (inactive) | > 100 µM (inactive) | 66.1 µM (inactive) | 52.2 µM (inactive) |
| CCC(NC1=NCCO1)c1cccs1 (stereo unspecified) | 15.8 µM (inactive) | 14.1 µM (inactive) | 20.7 µM (inactive) | 19.7 µM (inactive) | 19.5 µM (inactive) | 13 µM (inactive) | 15.5 µM (inactive) | 11.2 µM (inactive) | 15.6 µM (inactive) | 14.1 µM (inactive) | 19 µM (inactive) | 17.2 µM (inactive) | 15.6 µM (inactive) |  | 14.5 µM (inactive) | 17.3 µM (inactive) | 15.1 µM (inactive) | 13.7 µM (inactive) | 25.8 µM (inactive) | 16.9 µM (inactive) |
| CC(=O)Nc1n[n+]([O-])c2cc(C)ccc2[n+]1[O-] | 22.8 µM (inactive) | 2.08 µM (inactive) | 6.81 µM (inactive) | 2.52 µM (inactive) | 2.05 µM (inactive) | 3.18 µM (inactive) | 3.84 µM (inactive) | 6.61 µM (inactive) | 0.296 µM (active) | 2.44 µM (inactive) | 5.75 µM (inactive) | 2.52 µM (inactive) | 17 µM (inactive) | 3.57 µM (inactive) | 4.72 µM (inactive) | 2.37 µM (inactive) | 2.5 µM (inactive) | 4.71 µM (inactive) | 2.56 µM (inactive) | 2.4 µM (inactive) |
| Clc1nc2c(-c3cccs3)ncnc2n1Cc1ccccc1 | 23 µM (inactive) | 45.2 µM (inactive) | 32.2 µM (inactive) | 39.8 µM (inactive) | 19.4 µM (inactive) | 36.5 µM (inactive) | 3.21 µM (inactive) | 22.8 µM (inactive) | 6.04 µM (inactive) | 32.4 µM (inactive) | 17 µM (inactive) | 3.08 µM (inactive) | 61.5 µM (inactive) | 29.6 µM (inactive) | 49.2 µM (inactive) | 34.7 µM (inactive) | 63.5 µM (inactive) | 2.49 µM (inactive) | 6.97 µM (inactive) | 23 µM (inactive) |
| Cc1ccc(NC(Nc2ccc(C)cc2C)=C(/C=C(\Cl)[N+](=O)[O-])[N+](=O)[O-])c(C)c1 | 4.37 µM (inactive) | 1.7 µM (inactive) | 4.94 µM (inactive) | 5.43 µM (inactive) | 2.37 µM (inactive) | 3.09 µM (inactive) | 23.3 µM (inactive) | 6.71 µM (inactive) | 2.83 µM (inactive) | 17.3 µM (inactive) | 1.72 µM (inactive) | 2.08 µM (inactive) | 2.34 µM (inactive) | 4.82 µM (inactive) | 2.87 µM (inactive) | 2.18 µM (inactive) | 16.6 µM (inactive) | 18.5 µM (inactive) | 1.28 µM (inactive) | 2.72 µM (inactive) |
| Cc1nc(C)c(N2CCN(C(=O)O)CC2)c(O)n1 | > 100 µM (inactive) | > 100 µM (inactive) | > 100 µM (inactive) | > 100 µM (inactive) | > 100 µM (inactive) | > 100 µM (inactive) | > 100 µM (inactive) | > 100 µM (inactive) | > 100 µM (inactive) | > 100 µM (inactive) | > 100 µM (inactive) | 1.39 µM (inactive) | > 100 µM (inactive) | > 100 µM (inactive) | > 100 µM (inactive) | > 100 µM (inactive) | > 100 µM (inactive) | > 100 µM (inactive) | > 100 µM (inactive) | > 100 µM (inactive) |
| OCC(O)C(O)C(O)C1SC(c2ccccc2)=NN1c1ccccc1 (stereo unspecified) | 61.9 µM (inactive) | 69.5 µM (inactive) | > 55 µM (inactive) | > 92 µM (inactive) | 33 µM (inactive) | > 82 µM (inactive) | > 100 µM (inactive) | 35.1 µM (inactive) | > 100 µM (inactive) | 78.3 µM (inactive) | 20.4 µM (inactive) | > 100 µM (inactive) | > 81.5 µM (inactive) | 24.6 µM (inactive) | 97.9 µM (inactive) | > 100 µM (inactive) | 35.1 µM (inactive) | > 61 µM (inactive) | > 81.3 µM (inactive) | > 68.9 µM (inactive) |
| CC(C)(C)c1cc(-c2cc(C(C)(C)C)[nH]n2)[nH]n1 | > 100 µM (inactive) | > 100 µM (inactive) | > 100 µM (inactive) | > 100 µM (inactive) | > 100 µM (inactive) | > 100 µM (inactive) | > 100 µM (inactive) | > 100 µM (inactive) | > 100 µM (inactive) | > 100 µM (inactive) | > 100 µM (inactive) | > 100 µM (inactive) | > 100 µM (inactive) | > 100 µM (inactive) | > 100 µM (inactive) | > 100 µM (inactive) | > 100 µM (inactive) | > 100 µM (inactive) | 39.1 µM (inactive) | > 100 µM (inactive) |
| COC(=O)n1c(=O)nc2c3c(ncn21)Oc1c(c(-c2ccccc2)nn1-c1ccccc1)C3c1ccc(Cl)cc1 (stereo unspecified) | 1.79 µM (inactive) | 1.01 µM (active) | 1.67 µM (inactive) | 1.56 µM (inactive) | 1.5 µM (inactive) | 1.04 µM (active) | 1.42 µM (inactive) | 1.17 µM (inactive) | 1.69 µM (inactive) | 1.77 µM (inactive) | 1.63 µM (inactive) | 1.63 µM (inactive) | 1.79 µM (inactive) | 1.3 µM (inactive) | 1.66 µM (inactive) | 1.45 µM (inactive) | 1.67 µM (inactive) | 1.63 µM (inactive) | 1.82 µM (inactive) | 1.42 µM (inactive) |
| COc1ccc2c(c1)/c(=C/C#N)c1c3ccccc3[n+](C)n21 | 6.9 µM (inactive) | 3.13 µM (inactive) | 24 µM (inactive) | 2.24 µM (inactive) | 4.33 µM (inactive) | 5.21 µM (inactive) | 1.44 µM (inactive) | 8.55 µM (inactive) | 6.1 µM (inactive) | 3.39 µM (inactive) | 10.9 µM (inactive) | 16.1 µM (inactive) | 5.58 µM (inactive) | 8.71 µM (inactive) | 6.87 µM (inactive) | 2.34 µM (inactive) | 7.69 µM (inactive) | 1.71 µM (inactive) | 6.34 µM (inactive) | 1.34 µM (inactive) |
| COC(=O)C(CNC(=O)/C=C/c1ccc(OC)c(OC)c1)NC(=O)/C=C/c1ccc(OC)c(OC)c1 (stereo unspecified) | > 100 µM (inactive) | > 100 µM (inactive) | > 100 µM (inactive) | > 100 µM (inactive) | > 100 µM (inactive) | 92.3 µM (inactive) | 50 µM (inactive) | > 100 µM (inactive) | > 100 µM (inactive) | > 100 µM (inactive) | > 100 µM (inactive) | > 100 µM (inactive) | 67.3 µM (inactive) | > 100 µM (inactive) | > 100 µM (inactive) | > 100 µM (inactive) | > 100 µM (inactive) | > 100 µM (inactive) | > 100 µM (inactive) | 66.5 µM (inactive) |
| O=C(/C=C/c1ccc(O)c(O)c1)OCC(OC(=O)/C=C/c1ccc(O)c(O)c1)C(=O)O (stereo unspecified) | > 100 µM (inactive) | 81.7 µM (inactive) | > 100 µM (inactive) | > 100 µM (inactive) | 84.7 µM (inactive) |  | > 100 µM (inactive) | > 100 µM (inactive) | > 100 µM (inactive) | > 100 µM (inactive) | > 100 µM (inactive) | > 100 µM (inactive) | > 100 µM (inactive) | > 100 µM (inactive) | > 100 µM (inactive) | > 100 µM (inactive) | > 100 µM (inactive) | > 100 µM (inactive) | 21.3 µM (inactive) | 55.2 µM (inactive) |
| CCN(CC)CCC(=O)c1ccc(C)cc1 | > 10 µM (inactive) | 16.3 µM (inactive) | 14.9 µM (inactive) | 20.8 µM (inactive) | 13.8 µM (inactive) | 23 µM (inactive) | 43 µM (inactive) | 61.5 µM (inactive) | 4.88 µM (inactive) | > 100 µM (inactive) | 17 µM (inactive) |  | 16.3 µM (inactive) | > 100 µM (inactive) | 19 µM (inactive) | 16.9 µM (inactive) | > 100 µM (inactive) | 39.6 µM (inactive) | 28 µM (inactive) | 17.7 µM (inactive) |

From ChEMBL document CHEMBL1201862, “PubChem BioAssay data set” (2004)
